Laboratory results as given in patent publication US7112680B2, “Heterocyclic hydrazones for use as anti-cancer agents” (Austria Wirtschaftsservice Gesellschaft MIT Beschrankter …, priority 2000, dated 2006).
pIC50: −log10 of the molar value. Like-named read-outs stand apart in the source and are kept apart here.

What was measured:
[1] = system: Burkitt's lymphoma (CA 46, ATCC No. CRL 1648); assay: Inhibition of tumor cell growth, MTT-assay, Burkitt's lymphoma; type: cell-based, human
Method: (§1) The KB cell lines were grown in Dulbecco's modified Eagle's medium (4,5 g glucose/l). To the cultures of KB-C1 cells 1 μg of colchicine/ml, and to the hydroxyurea-resistant KB-HU cells 1 mM hydroxyurea was added every other week. […] 3,000 - 10,000 cells in 200 μl medium were seeded per well into 96-well plates. […] Approximately 10,000 cells per 100 μl were seeded in 96-well plates. […] The substances were dissolved in dimethylsulfoxide (DMSO). […] Subsequently, the samples were fixed, washed, and the absorption was determined by a microplate reader.

[2] = system: HeLa (epitheloid cervix carcinoma); assay: Inhibition of tumor cell growth, SRB-assay, HeLa; type: cell-based, human; conditions: for pIC50: Table 4, 72 hours, read-out: In vitro-activity against human tumor cell lines, HeLa; for IC50: Table 1, 72 hours, read-out: IC50 HeLa (converted)
[3] = system: HT-29 (colon adenocarcinoma); assay: Inhibition of tumor cell growth, SRB-assay, HT-29; type: cell-based, human; conditions: for pIC50: read-out: In vitro-activity against human tumor cell lines, HT-29; for IC50: read-out: IC50 HT-29 (converted)
Method: as §1

[4] = system: KB-3-1 (human oral epidermoid carcinoma); assay: Inhibition of tumor cell growth, SRB-assay, KB-3-1; type: cell-based
Method: (§2) In order to obtain information about the growth-inhibiting action on tumor cells, the inhibition of the growth of the following human tumor cells was determined: Burkitt's lymphoma (CA 46, ATCC No. CRL 1648), CCRF-CEM (acute lymphoblastic leukemia, ATCC No. CCL 119), K562 (chronic myelogenous leukemia, ATTC No. CCL 243), HeLa (epitheloid cervix carcinoma, ATCC No. CCL 2), MEXF 276L (melanoma), HT-29 (colon adenocarcinoma, ATCC No. HTB 38), KB-3-1 (human oral epidermoid carcinoma, CTCC No. CCL 17), KB-HU hydroxyurea-resistant, multidrug-resistant KB-C1 cells (Akiyama et al, Cell. Mol Genet., 11:117–126, 1985). Burkitt's, CCRF-CEM, HeLa and MEXF 276L cells were grown in RPMI 1640, HT-29 cells in McCoy's 5A medium. The KB cell lines were grown in Dulbecco's modified Eagle's medium (4,5 g glucose/l). To the cultures of KB-C1 cells 1 μg of colchicine/ml, and to the hydroxyurea-resistant KB-HU cells 1 mM hydroxyurea was added every other week. The media were supplemented with 10% fetal calf serum (except Burkitt's lymphoma cells with 15%), 2 mM glutamine, 50 units/ml penicillin and 50 μg/ml streptomycin. Inhibition of growth of HeLa, HT-29, KB and MEXF 276L cells was detected by the SRB-assay (Skehan et al, J. Natl Cancer Inst., 82:1107–1112, 1990). 3,000 - 10,000 cells in 200 μl medium were seeded per well into 96-well plates. Dose-response curves for CCRF-CEM and Burkitt's lymphoma cells were effected by an MTT-assay (Mosman, J. Immunol Methods, 65:55–63, 1983) from Boehringer Mannheim, Mannheim, Germany. Approximately 10,000 cells per 100 μl were seeded in 96-well plates. After an initial incubation of four hours, various substance concentrations were added, and the cells were incubated at 37° C. in a water-saturated atmosphere of 95% air and 5% CO2 for 72 hours. The substances were dissolved in dimethylsulfoxide (DMSO). The concentration of DMSO was 0.5%, and this was not toxic to the cells. Subsequently, the samples were fixed, washed, and the absorption was determined by a microplate reader.

[5] = system: KB-HU hydroxyurea-resistant cells; assay: Inhibition of tumor cell growth, SRB-assay, KB-HU; type: cell-based, human
Method: as §2

[6] = system: multidrug-resistant KB-C1 cells; assay: Inhibition of tumor cell growth, SRB-assay, KB-C1; type: cell-based, human
Method: as §2

[7] = system: human tumor grafts (cell lines of FIG. 1); assay: Colony forming assay (two-layer soft agar); type: cell-based; conditions: for pIC50 / IC90 / Mean IC70: mean values of all cell lines tested in FIG. 1, continuous exposure 3 to 6 days; for tumor type selectivity: colony forming assay, IC70 pattern, FIG. 1
Method: An excellent correlation of drug response in patients and the colony forming assay has been found (Scholz et al, Eur. J. Cancer 25:901–905, 1990). Solid human tumors were grown as grafts in nude mice, removed from the latter, mechanically comminuted and subsequently incubated in an enzyme cocktail consisting of collagenase (1.2–1.8 U/ml), DNAse (375 U/ml) and hyaluronidase (29 U/ml) in RPMI 1640 medium at 37° C. for 30 minutes. The cell mixture was passed through sieves of 200 μm and 50 μm mesh size and washed thereafter twice with PBS (phosphate buffered saline). The percentage of live cells was determined using a Neubauer counting chamber and trypan blue staining.
The colony forming assay was performed according to a two-layer agar technique introduced and modified by Hamburger and Salmon (Hamburger and Salmon, Science, 197:461–463, 1977). The bottom layer consisted of 0.2 ml of Iscoves's Modified Dulbecco's medium with 20% fetal calf serum and 0.75% agar. 8×10^3 to 1.6×10^4 cells were added to the same medium and 0.4% agar and plated in 24-multiwell plates onto the base layer. One day after the plating (with continuous exposure), the substances were added in 0.2 ml medium. Each plate included six controls containing the solvent only, and the treated groups contained 6 concentrations of the substances, each in triplicate. Cultures were incubated at 37° C. and 7% CO2 in a water-saturated atmosphere for 3 to 6 days, depending on the doubling time of the tumor cells. At the time of maximum colony formation with a size of […], counts were performed with an automatic image analysis system. 24 h prior to counting, live colonies were stained with a sterile aqueous solution of 2-(4-iodophenyl)-3-(4-nitrophenyl)-5-phenyltetrazolium chloride (1 mg/ml, 100 μl/well). The results of the tests are given in FIG. 1, and in the following Table 5, respectively. […] Columns pointing towards the right show a slighter than average activity.

[8] = Homo sapiens, KB 3-1, Table 4, 72 hours, read-out: In vitro-activity against human tumor cell lines, KB-3-1
[9] = Homo sapiens, Table 4, 72 hours, read-out: In vitro-activity against human tumor cell lines, KB-HU
[10] = Homo sapiens, KBC-1, Table 4, 72 hours, read-out: In vitro-activity against human tumor cell lines, KB-C1
[11] = Table 1, 72 hours, read-out: IC50 KB-Cl
[12] = Table 1, 72 hours, read-out: IC50 Burkitts
[13] = Table 1, 72 hours, read-out: IC50 KB-3-1
[14] = Table 1, 72 hours, read-out: IC50 KB-HU
[15] = Table 4, 72 hours, read-out: In vitro-activity against human tumor cell lines, KB-3-1
[16] = Table 4, 72 hours, read-out: In vitro-activity against human tumor cell lines, KB-HU
[17] = Table 4, 72 hours, read-out: In vitro-activity against human tumor cell lines, KB-C1

`COc1cccnc1C(C)=NNc1nc2ccccc2n1C` [Id-1, 1-(3-Methoxy-2-pyridyl)-1-ethanone-1-(1-methyl-1H-benzo[d]imidazol-2-yl)-hydrazone] gave a pIC50 ([1]; Homo sapiens, CA46, Table 4, 72 hours, read-out: In vitro-activity against human tumor cell lines, Burkitts) of 9.00, a pIC50 ([2]; Homo sapiens, HeLa) of 7.30 and a pIC50 ([3]; Homo sapiens, HT-29, Table 4, 72 hours) of 6.64. For the same compound, the pIC50 [4, 8] was 7.70, the pIC50 [5, 9] was 8.00 and the pIC50 [6, 10] was 6.06.

In the case of `c1ccc(C(=NNc2nc3ccccc3[nH]2)C2CC2)nc1` [Ia-23], the IC50 [2] was 70 nM, the IC50 ([3]; Table 1, 72 hours) was 510 nM and the pIC50 [6, 11] was 6.49.

With `CC(=NNc1nc2ccccc2[nH]1)c1ccccn1` [Ia-4, 1-(2-Pyridyl)-1-ethanon-1(1H-benzo[d]imidazol-2-yl)-hydrazone] the pIC50 ([1]; Homo sapiens, CA46, Table 1, 72 hours, read-out: IC50 Burkitts) was 7.36, the IC50 ([2]; Homo sapiens, HeLa) was 70 nM and the IC50 ([3]; Homo sapiens, HT-29, Table 1, 72 hours) was 490 nM. For the same compound, the pIC50 ([4]; Homo sapiens, KB 3-1, Table 1, 72 hours, read-out: IC50 KB-3-1) was 6.29, the pIC50 ([5]; Homo sapiens, Table 1, 72 hours, read-out: IC50 KB-HU) was 6.05 and the pIC50 ([6]; Homo sapiens, KBC-1, Table 1, 72 hours, read-out: IC50 KB-Cl) was 5.71.

For `CC(=NNc1nc2ccccc2n1C)c1ccc(C)cn1` [Id-9, 1-(5-Methyl-2-pyridyl)-1-ethanone-1-(1-methyl-1H-benzo[d]imidazol-2-yl)-hydrazone], the pIC50 [4, 8] was 7.40, the pIC50 [5, 9] was 6.92 and the pIC50 [6, 10] was 6.96. The pIC50 ([7]; Homo sapiens) was 6.70, the IC90 ([7]; Homo sapiens) was 3790 nM and the “Mean IC70” value [7] was 560 nM.

In the case of `C(=NNc1nc2ccccc2o1)c1ccccn1` [Ia-3], the pIC50 [1, 12] was 8.30, the IC50 [2] was 25 nM and the IC50 ([3]; Table 1, 72 hours) was 1440 nM. For the same compound, the pIC50 [4, 13] was 6.32, the pIC50 [5, 14] was 6.21 and the pIC50 [6, 11] was 6.11.

With `c1ccc(C(=NNc2nc3ccccc3[nH]2)c2ccccn2)nc1` [Ia-36] the IC50 [2] was 1430 nM, the IC50 ([3]; Table 1, 72 hours) was 1360 nM and the pIC50 [6, 11] was 5.68.

With `CCC(=NNc1nc2ccccc2o1)c1ccccn1` [Ia-9] the tumor type selectivity [7] was “selectivity for colon, breast, ovarian, and uterus tumors”.

`CC(=NNc1nc2ccccc2n1C)c1cccc(N(C)C)n1` [Id-13] was tested, and the pIC50 ([1]; Table 4, 72 hours, read-out: In vitro-activity against human tumor cell lines, Burkitts) was 5.70, the pIC50 [2] was 5.18 and the pIC50 ([3]; Table 4, 72 hours) was 4.76. The pIC50 [4, 15] was 5.40, the pIC50 [5, 16] was 5.31 and the pIC50 [6, 17] was 4.53.

In the case of `C(=NNc1nc2ccccc2[nH]1)c1ccccn1` [Ia-1], the pIC50 [1, 12] was 6.18, the IC50 [2] was 1020 nM and the IC50 ([3]; Table 1, 72 hours) was 3690 nM. The pIC50 [4, 13] was 5.87 and the pIC50 [6, 11] was 5.53.

`COc1ccnc(C(C)=NNc2nc3ccccc3n2C)c1` [Id-2] was tested, and the pIC50 [2] was 7.30, the pIC50 ([3]; Table 4, 72 hours) was 6.92 and the pIC50 [4, 15] was 7.30. For the same compound, the pIC50 [5, 16] was 7.40, the pIC50 [6, 17] was 6.80 and the tumor type selectivity [7] was “selectivity for colon, breast, ovarian, and uterus tumors”. For the same compound, the pIC50 [7] was 7.10, the IC90 [7] was 2850 nM and the “Mean IC70” value [7] was 261 nM.

Work on `CCC(=NNc1nc2ccccc2[nH]1)c1ccccn1` [Ia-7] yielded an IC50 [2] of 53 nM, an IC50 ([3]; Table 1, 72 hours) of 240 nM and a pIC50 [4, 13] of 5.40. The pIC50 [6, 11] was 6.13.

Compound `CC(=NNc1nc2ccccc2o1)c1ccccn1` [Ia-6] has a pIC50 [1, 12] of 8.05, an IC50 [2] of 23 nM and an IC50 ([3]; Table 1, 72 hours) of 130 nM. It also gave a pIC50 [4, 13] of 6.68, a pIC50 [5, 14] of 6.49 and a pIC50 [6, 11] of 6.21.
